From patent US9226500B2, “Pesticidal compositions and processes related thereto” (Dow AgroSciences LLC, priority 2012, dated 2016)

Tested on: Beet Armyworm (Spodoptera exigua)
Test: Bioassay on Beet Armyworm (BAW), 128-well diet tray assay
Type: in vivo
Conditions: Table 3, Assays Results Part 1
Method: Certain molecules disclosed in this document were tested against BAW, CEW and CL using procedures described in the following examples. In the reporting of the results, the “BAW & CEW & CL Rating Table” was used (See Table Section).
Bioassays on BAW (Spodoptera exigua)
Bioassays on BAW were conducted using a 128-well diet tray assay. One to five second instar BAW larvae were placed in each well (3 mL) of the diet tray that had been previously filled with 1 mL of artificial diet to which 50 μg/cm^2 of the test compound (dissolved in 50 μL of 90:10 acetone-water mixture) had been applied (to each of eight wells) and then allowed to dry. Trays were covered with a clear self-adhesive cover, and held at 25° C., 14:10 light-dark for five to seven days. Percent mortality was recorded for the larvae in each well; activity in the eight wells was then averaged. The results are indicated in the tables entitled “Table 3: Assay Results Part 1” and “Table 4: Assay Results Part 2” (See Table Section).

Compound: O=C(Cc1ccc(Cl)nc1)NC1CCc2cc(/C=C/C(c3cc(Cl)c(F)c(Cl)c3)C(F)(F)F)ccc21 (centres unmarked) [BC9]
- BAW Rating: A (50-100)

Compound: Fc1c(Cl)cc(C(/C=C/c2ccc3c(c2)CCC3NCCC(F)(F)F)C(F)(F)F)cc1Cl (centres unmarked) [BC10, (E)-5-(3-(3,5-Dichloro-4-fluorophenyl)-4,4,4-trifluorobut-1-en-1-yl)-N-(3,3,3-trifluoropropyl)-2,3-dihydro-1H-inden-1-amine]
- BAW Rating: A (50-100)

Compound: O=C(CC(F)(F)F)NCC(=O)n1ccc2cc(/C=C/C(c3cc(Cl)c(F)c(Cl)c3)C(F)(F)F)ccc21 (centres unmarked) [BC13, (E)-N-(2-(5-(3-(3,5-Dichloro-4-fluorophenyl)-4,4,4-trifluorobut-1-en-1-yl)-1H-indol-1-yl)-2-oxoethyl)-3,3,3-trifluoropropanamide]
- BAW Rating: A (50-100)

Compound: O=C(Cn1ncc2cc(/C=C/C(c3cc(Cl)c(F)c(Cl)c3)C(F)(F)F)ccc2c1=O)NCC(F)(F)F (centres unmarked) [BC14, (E)-2-(6-(3-(3,5-Dichloro-4-fluorophenyl)-4,4,4-trifluorobut-1-en-1-yl)-1-oxophthalazin-2(1H)-yl)-N-(2,2,2-trifluoroethyl)acetamide]
- BAW Rating: A (50-100)

Compound: O=C(NCc1ccc(/C=C/C(c2cc(Cl)cc(Cl)c2)C(F)(F)F)cc1)C1CC1 (centres unmarked) [CC2]
- BAW Rating: A (50-100)

Compound: O=C(CC(F)(F)F)NCc1ccc(/C=C/C(c2cc(Cl)cc(Cl)c2)C(F)(F)F)cc1 (centres unmarked) [CC3]
- BAW Rating: A (50-100)

Compound: CCC(=O)NCc1ccc(/C=C/C(c2cc(Cl)cc(Cl)c2)C(F)(F)F)cc1 (centres unmarked) [CC4]
- BAW Rating: A (50-100)

Compound: O=C(NCc1ccc(/C=C/C(c2cc(Cl)c(Cl)c(Cl)c2)C(F)(F)F)cc1)C1CC1 (centres unmarked) [CC5]
- BAW Rating: A (50-100)

Compound: O=C(CC(F)(F)F)NCc1ccc(/C=C/C(c2cc(Cl)c(Cl)c(Cl)c2)C(F)(F)F)cc1 (centres unmarked) [CC6]
- BAW Rating: A (50-100)

Compound: CC(=O)NCc1ccc(/C=C/C(c2cc(Cl)cc(Cl)c2)C(F)(F)F)cc1Cl (centres unmarked) [CC7, (E)-N-(2-Chloro-4-(3-(3,5-dichlorophenyl)-4,4,4-trifluorobut-1-en-1-yl)benzyl)acetamide]
- BAW Rating: A (50-100)

Compound: O=C(NCc1ccc(/C=C/C(c2cc(Cl)cc(Cl)c2)C(F)(F)F)cc1Cl)C1CC1 (centres unmarked) [CC8]
- BAW Rating: A (50-100)

Compound: O=C(CC(F)(F)F)NCc1ccc(/C=C/C(c2cc(Cl)cc(Cl)c2)C(F)(F)F)cc1Cl (centres unmarked) [CC9]
- BAW Rating: A (50-100)

Compound: O=C(NCc1ccc(/C=C/C(c2cc(Cl)c(Cl)c(Cl)c2)C(F)(F)F)cc1Cl)C1CC1 (centres unmarked) [CC11]
- BAW Rating: A (50-100)

Compound: O=C(Cc1ccc(Cl)nc1)NCc1ccc(/C=C/C(c2cc(Cl)c(Cl)c(Cl)c2)C(F)(F)F)cc1Cl (centres unmarked) [CC14]
- BAW Rating: A (50-100)

Compound: O=C(NCc1ccc(/C=C/C(c2cc(Cl)c(F)c(Cl)c2)C(F)(F)F)cc1Cl)C1CC1 (centres unmarked) [CC15]
- BAW Rating: A (50-100)

Compound: O=C(NCc1ccc(/C=C/C(c2ccc(Cl)c(Cl)c2)C(F)(F)F)cc1Cl)C1CC1 (centres unmarked) [CC17]
- BAW Rating: A (50-100)

Compound: O=C(CC(F)(F)F)NCc1ccc(/C=C/C(c2ccc(Cl)c(Cl)c2)C(F)(F)F)cc1Cl (centres unmarked) [CC18]
- BAW Rating: A (50-100)

Compound: CSCCC(=O)NCc1ccc(/C=C/C(c2cc(Cl)c(Cl)c(Cl)c2)C(F)(F)F)cc1Cl (centres unmarked) [CC19]
- BAW Rating: A (50-100)

Compound: FC(F)(F)C(/C=C/c1ccc(CNC(=S)C2CC2)c(Cl)c1)c1cc(Cl)c(Cl)c(Cl)c1 (centres unmarked) [CC20]
- BAW Rating: A (50-100)

Compound: O=C(NCc1ccc(/C=C/C(c2cc(Cl)cc(Cl)c2)C(F)(F)F)cc1C(F)(F)F)C1CC1 (centres unmarked) [CC21]
- BAW Rating: A (50-100)

Compound: O=C(NCc1ccc(/C=C/C(c2cc(Cl)c(Cl)c(Cl)c2)C(F)(F)F)cc1C(F)(F)F)C1CC1 (centres unmarked) [CC22]
- BAW Rating: A (50-100)

Compound: O=C(CC(F)(F)F)NCc1ccc(/C=C/C(c2cc(Cl)c(Cl)c(Cl)c2)C(F)(F)F)cc1C(F)(F)F (centres unmarked) [CC24]
- BAW Rating: A (50-100)

Compound: O=C(CC(F)(F)F)NCc1ccc(/C=C/C(c2cc(Cl)c(Cl)c(Cl)c2)C(F)(F)F)cc1Br (centres unmarked) [CC25]
- BAW Rating: A (50-100)

Compound: O=C(NCc1ccc(/C=C/C(c2cc(Cl)c(Cl)c(Cl)c2)C(F)(F)F)cc1Br)C1CC1 (centres unmarked) [CC26]
- BAW Rating: A (50-100)

Compound: O=C(CC(F)(F)F)NCc1ccc(/C=C/C(c2cc(Cl)c(Cl)c(Cl)c2)C(F)(F)F)cc1F (centres unmarked) [CC27]
- BAW Rating: A (50-100)

Compound: O=C(NCc1ccc(/C=C/C(c2cc(Cl)c(Cl)c(Cl)c2)C(F)(F)F)cc1F)C1CC1 (centres unmarked) [CC28]
- BAW Rating: A (50-100)

Compound: O=C(C1CC1)N(Cc1ccccn1)Cc1ccc(/C=C/C(c2cc(Cl)c(Cl)c(Cl)c2)C(F)(F)F)cc1C(F)(F)F (centres unmarked) [CC29, (E)-N-(Pyridin-2-ylmethyl)-N-(4-(4,4,4-trifluoro-3-(3,4,5-trichlorophenyl)but-1-enyl)-2-(trifluoromethyl)benzyl)cyclopropanecarboxamide]
- BAW Rating: A (50-100)

Compound: CS(=O)(=O)CCC(=O)NCc1ccc(/C=C/C(c2cc(Cl)c(Cl)c(Cl)c2)C(F)(F)F)cc1Cl (centres unmarked) [CC30, (E)-N-(2-Chloro-4-(4,4,4-trifluoro-3-(3,4,5-trichlorophenyl)but-1-en-1-yl)benzyl)-3-(methylsulfonyl)propanamide]
- BAW Rating: A (50-100)

Compound: CCNC(=O)NCc1ccc(/C=C/C(c2cc(Cl)cc(Cl)c2)C(F)(F)F)cc1Cl (centres unmarked) [CC31, (E)-1-(2-Chloro-4-(3-(3,5-dichlorophenyl)-4,4,4-trifluorobut-1-en-1-yl)benzyl)-3-ethylurea]
- BAW Rating: B (More than 0-Less than 50)

Compound: CCNC(=O)NCc1ccc(/C=C/C(c2cc(Cl)c(Cl)c(Cl)c2)C(F)(F)F)cc1C(F)(F)F (centres unmarked) [CC32]
- BAW Rating: A (50-100)

Compound: CCNC(=O)NCc1ccc(/C=C/C(c2cc(Cl)c(Cl)c(Cl)c2)C(F)(F)F)cc1Br (centres unmarked) [CC33]
- BAW Rating: A (50-100)

Compound: O=C(NCc1ccc(/C=C/C(c2cc(Cl)c(Cl)c(Cl)c2)C(F)(F)F)cc1Cl)N1CCOCC1 (centres unmarked) [CC34]
- BAW Rating: A (50-100)

Compound: CN(C)C(=O)NCc1ccc(/C=C/C(c2cc(Cl)c(Cl)c(Cl)c2)C(F)(F)F)cc1Cl (centres unmarked) [CC36, (E)-3-(2-Chloro-4-(4,4,4-trifluoro-3-(3,4,5-trichlorophenyl)but-1-en-1-yl)benzyl)-1,1-dimethylurea]
- BAW Rating: A (50-100)

Compound: CCNC(=S)NCc1ccc(/C=C/C(c2cc(Cl)c(Cl)c(Cl)c2)C(F)(F)F)cc1Cl (centres unmarked) [CC37, (E)-1-(2-Chloro-4-(4,4,4-trifluoro-3-(3,4,5-trichlorophenyl)but-1-en-1-yl)benzyl)-3-ethylthiourea]
- BAW Rating: A (50-100)

Compound: C=CCNC(=S)NCc1ccc(/C=C/C(c2cc(Cl)c(Cl)c(Cl)c2)C(F)(F)F)cc1Cl (centres unmarked) [CC38]
- BAW Rating: A (50-100)

Compound: FC(F)(F)C(/C=C/c1ccc(CNc2ccccn2)c(Cl)c1)c1cc(Cl)c(Cl)c(Cl)c1 (centres unmarked) [CC43, (E)-N-(2-Chloro-4-(4,4,4-trifluoro-3-(3,4,5-trichlorophenyl)but-1-en-1-yl)benzyl)pyridin-2-amine]
- BAW Rating: A (50-100)

Compound: O=C(CC(F)(F)F)NCc1ncc(/C=C/C(c2cc(Cl)c(Cl)c(Cl)c2)C(F)(F)F)cc1Cl (centres unmarked) [CC44, (E)-N-((3-Chloro-5-(4,4,4-trifluoro-3-(3,4,5-trichlorophenyl)-but-1-en-1-yl)pyridin-2-yl)methyl)-3,3,3-trifluoropropanamide]
- BAW Rating: A (50-100)

Compound: O=C(NCc1ncc(/C=C/C(c2cc(Cl)c(Cl)c(Cl)c2)C(F)(F)F)cc1Cl)C1CC1 (centres unmarked) [CC45]
- BAW Rating: A (50-100)

Compound: O=C(NNc1ccc(/C=C/C(c2cc(Cl)c(Cl)c(Cl)c2)C(F)(F)F)cc1)C1CC1 (centres unmarked) [CC50, (E)-N′-(4-(4,4,4-Trifluoro-3-(3,4,5-trichlorophenyl)but-1-en-1-yl)phenyl)cyclopropanecarbohydrazide]
- BAW Rating: A (50-100)

Compound: O=C(CC(F)(F)F)NNc1ccc(/C=C/C(c2cc(Cl)c(Cl)c(Cl)c2)C(F)(F)F)cc1 (centres unmarked) [CC51]
- BAW Rating: A (50-100)

Compound: O=C(NOc1ccc(/C=C/C(c2cc(Cl)c(Cl)c(Cl)c2)C(F)(F)F)cc1)C1CC1 (centres unmarked) [CC52, (E)-N-(4-(4,4,4-Trifluoro-3-(3,4,5-trichlorophenyl)but-1-en-1-yl)phenoxy)cyclopropanecarboxamide]
- BAW Rating: A (50-100)

Compound: O=C(CC(F)(F)F)NCc1ccc(/C=C\C(c2cc(Cl)c(Cl)c(Cl)c2)C(F)(F)F)cc1 (centres unmarked) [CC54, (Z)-3,3,3-Trifluoro-N-(4-(4,4,4-trifluoro-3-(3,4,5-trichlorophenyl)but-1-en-1-yl)benzyl)propanamide]
- BAW Rating: A (50-100)

Compound: FC(F)(F)C(/C=C/c1ccc(-n2cncn2)cc1)c1cc(Cl)cc(Cl)c1 (centres unmarked) [DC1, (E)-1-(4-(3-(3,5-Dichlorophenyl)-4,4,4-trifluorobut-1-en-1-yl)phenyl)-1H-1,2,4-triazole]
- BAW Rating: A (50-100)

Compound: FC(F)(F)C(/C=C/c1ccc(-n2cncn2)cc1)c1ccccc1 (centres unmarked) [DC3]
- BAW Rating: B (More than 0-Less than 50)

Compound: FC(F)(F)C(/C=C/c1ccc(-n2cncn2)cc1)c1ccc(Cl)cc1 (centres unmarked) [DC4]
- BAW Rating: A (50-100)

Compound: Fc1ccc(C(/C=C/c2ccc(-n3cncn3)cc2)C(F)(F)F)cc1 (centres unmarked) [DC7]
- BAW Rating: A (50-100)

Compound: Fc1cc(F)cc(C(/C=C/c2ccc(-n3cncn3)cc2)C(F)(F)F)c1 (centres unmarked) [DC8]
- BAW Rating: A (50-100)

Compound: Cc1cc(C)cc(C(/C=C/c2ccc(-n3cncn3)cc2)C(F)(F)F)c1 (centres unmarked) [DC11]
- BAW Rating: A (50-100)

Compound: FC(F)(F)C(/C=C/c1ccc(-n2cncn2)cc1)c1ccc(Cl)c(Cl)c1 (centres unmarked) [DC12]
- BAW Rating: A (50-100)

Compound: FC(F)(F)c1cc(C(/C=C/c2ccc(-n3cncn3)cc2)C(F)(F)F)cc(C(F)(F)F)c1 (centres unmarked) [DC16]
- BAW Rating: A (50-100)

Compound: COc1c(Cl)cc(C(/C=C/c2ccc(-n3cncn3)cc2)C(F)(F)F)cc1Cl (centres unmarked) [DC20]
- BAW Rating: A (50-100)

Compound: N#Cc1cc(/C=C/C(c2cc(Cl)cc(C(F)(F)F)c2)C(F)(F)F)ccc1-n1cncn1 (centres unmarked) [DC33]
- BAW Rating: A (50-100)

Compound: COc1c(Cl)cc(C(/C=C/c2ccc(-n3cncn3)c(C#N)c2)C(F)(F)F)cc1Cl (centres unmarked) [DC34]
- BAW Rating: A (50-100)
